Data from publication PMC12931196, “Vm–MSI: a Vancomycin–Antimicrobial Peptide Conjugate Combating Resistant Bacteria and Broadening the Antimicrobial Spectrum” (Advanced Science, 2025).
Where two headings read alike, the source gives them in different places. Ends that are not written are not given here.

Compound | MIC (S. aureus CMCC26003; CMCC26003, 18 h) | MIC (MRSA ATCC43300; ATCC43300, 18 h) | MIC (VRSA 52; 52, 18 h) | MIC (E. coli ATCC25922; ATCC25922, 18 h) | MIC (E. faecalis ATCC29212; ATCC29212, 18 h) | MIC (K. pneumoniae 9883; 9883, 18 h) | MIC (VRSA 11; 11, 18 h) | MIC (S. typhimurium ATCC14028; ATCC14028, 18 h) | MIC (S. aureus 15772; 15772, 18 h) | MIC (S. aureus ATCC29213; ATCC29213, 18 h) | MIC (P. aeruginosa ATCC27853; ATCC27853, 18 h) | MIC (A. baumannii ATCC19606; ATCC19606, 18 h) | MIC (S. aureus 15192; 15192, 18 h) | further results
CC[C@H](C)[C@H](NC(=O)[C@@H](N)CSC1CC(=O)N(CC2CCC(C(=O)N(C)[C@H](CC(C)C)C(=O)N[C@H]3C(=O)N[C@@H](CC(N)=O)C(=O)N[C@H]4C(=O)N[C@H]5C(=O)N[C@H](C(=O)N[C@H](C(=O)O)c6cc(O)cc(O)c6-c6cc5ccc6O)[C@H](O)c5ccc(c(Cl)c5)Oc5cc4cc(c5O[C@@H]4O[C@H](CO)[C@@H](O)[C@H](O)[C@H]4O[C@H]4C[C@](C)(N)[C@H](O)[C@H](C)O4)Oc4ccc(cc4Cl)[C@H]3O)CC2)C1=O)C(=O)N[C@@H](CC(C)C)C(=O)N[C@@H](CCCNC(=N)N)C(=O)N[C@@H](Cc1c[nH]c2ccccc12)C(=O)N1CCC[C@H]1C(=O)N[C@@H](Cc1c[nH]c2ccccc12)C(=O)N[C@@H](Cc1c[nH]c2ccccc12)C(=O)N1CCC[C@H]1C(=O)N[C@@H](Cc1c[nH]c2ccccc12)C(=O)N[C@@H](CCCNC(=N)N)C(=O)N[C@@H](CCCNC(=N)N)C(=O)N[C@@H](CCCCN)C(N)=O (some centres unmarked) [Vm-Omi] | 0.78(0.22) µg mL^−1 | 4.69(1.32) µg mL^−1 | 75(21.13) µg mL^−1 | >100(>28) µg mL^−1 | >100(>28) µg mL^−1 | >100(>28) µg mL^−1 | 75(21.13) µg mL^−1 | >100(>28) µg mL^−1 | >100(>28) µg mL^−1 | 1.17(0.33) µg mL^−1 | >100(>28) µg mL^−1 | >100(>28) µg mL^−1 | 0.78(0.22) µg mL^−1 | 
RRIRPRPPRLPRPRPRP [Bac-7] | 37.5(17.27) µg mL^−1 | 9.38(4.32) µg mL^−1 | 75(34.53) µg mL^−1 | 18.75(8.63) µg mL^−1 | 18.75(8.63) µg mL^−1 | 9.38(4.32) µg mL^−1 | 75(34.53) µg mL^−1 | 75(34.53) µg mL^−1 | 75(34.53) µg mL^−1 | >100(>46.0) µg mL^−1 | >100(>46.0) µg mL^−1 | >100(>46.0) µg mL^−1 | 75(34.53) µg mL^−1 | 
GWGSFFKKAAHVGKHVGKAALTHYL-NH2 [Pleurecidin] | 1.17(0.43) µg mL^−1 | 2.34(0.86) µg mL^−1 | 9.38(3.46) µg mL^−1 | 2.34(0.86) µg mL^−1 | 4.69(1.73) µg mL^−1 | 4.69(1.73) µg mL^−1 | 4.69(1.73) µg mL^−1 | 18.75(6.92) µg mL^−1 | 9.38(3.46) µg mL^−1 | 9.38(3.46) µg mL^−1 | 9.38(3.46) µg mL^−1 | 9.38(3.46) µg mL^−1 | 9.38(3.46) µg mL^−1 | 
CC[C@H](C)[C@H](NC(=O)[C@H](CCCNC(=N)N)NC(=O)[C@H](CCCNC(=N)N)NC(=O)[C@@H](N)CSC1CC(=O)N(CC2CCC(C(=O)N(C)[C@H](CC(C)C)C(=O)N[C@H]3C(=O)N[C@@H](CC(N)=O)C(=O)N[C@H]4C(=O)N[C@H]5C(=O)N[C@H](C(=O)N[C@H](C(=O)O)c6cc(O)cc(O)c6-c6cc5ccc6O)[C@H](O)c5ccc(c(Cl)c5)Oc5cc4cc(c5O[C@@H]4O[C@H](CO)[C@@H](O)[C@H](O)[C@H]4O[C@H]4C[C@](C)(N)[C@H](O)[C@H](C)O4)Oc4ccc(cc4Cl)[C@H]3O)CC2)C1=O)C(=O)N[C@@H](CCCNC(=N)N)C(=O)N1CCC[C@H]1C(=O)N[C@@H](CCCNC(=N)N)C(=O)N1CCC[C@H]1C(=O)N1CCC[C@H]1C(=O)N[C@@H](CCCNC(=N)N)C(=O)N[C@@H](CC(C)C)C(=O)N1CCC[C@H]1C(=O)N[C@@H](CCCNC(=N)N)C(=O)N1CCC[C@H]1C(=O)N[C@@H](CCCNC(=N)N)C(=O)N1CCC[C@H]1C(=O)N[C@@H](CCCNC(=N)N)C(=O)N1CCC[C@H]1C(=O)O (some centres unmarked) [Vm-Bac] | 0.78(0.20) µg mL^−1 | 2.34(0.59) µg mL^−1 | 18.75(4.76) µg mL^−1 | 18.75(4.76) µg mL^−1 | 18.75(4.76) µg mL^−1 | >100(>25.4) µg mL^−1 | 18.75(4.76) µg mL^−1 | 37.5(9.52) µg mL^−1 | 2.34(0.59) µg mL^−1 | 2.34(0.59) µg mL^−1 | >100(>25.4) µg mL^−1 | 18.75(4.76) µg mL^−1 | 1.17(0.30) µg mL^−1 | 
CC(C)C[C@H](NC(=O)[C@H](Cc1ccc(O)cc1)NC(=O)[C@H](Cc1c[nH]cn1)NC(=O)[C@@H](NC(=O)[C@H](CC(C)C)NC(=O)[C@H](C)NC(=O)[C@H](C)NC(=O)[C@H](CCCCN)NC(=O)CNC(=O)[C@@H](NC(=O)[C@H](Cc1c[nH]cn1)NC(=O)[C@H](CCCCN)NC(=O)CNC(=O)[C@@H](NC(=O)[C@H](Cc1c[nH]cn1)NC(=O)[C@H](C)NC(=O)[C@H](C)NC(=O)[C@H](CCCCN)NC(=O)[C@H](CCCCN)NC(=O)[C@H](Cc1ccccc1)NC(=O)[C@H](Cc1ccccc1)NC(=O)[C@H](CO)NC(=O)CNC(=O)[C@H](Cc1c[nH]c2ccccc12)NC(=O)CNC(=O)[C@@H](N)CSC1CC(=O)N(CC2CCC(C(=O)N(C)[C@H](CC(C)C)C(=O)N[C@H]3C(=O)N[C@@H](CC(N)=O)C(=O)N[C@H]4C(=O)N[C@H]5C(=O)N[C@H](C(=O)N[C@H](C(=O)O)c6cc(O)cc(O)c6-c6cc5ccc6O)[C@H](O)c5ccc(c(Cl)c5)Oc5cc4cc(c5O[C@@H]4O[C@H](CO)[C@@H](O)[C@H](O)[C@H]4O[C@H]4C[C@](C)(N)[C@H](O)[C@H](C)O4)Oc4ccc(cc4Cl)[C@H]3O)CC2)C1=O)C(C)C)C(C)C)[C@@H](C)O)C(N)=O (some centres unmarked) [Vm-Ple] |  |  |  |  |  |  |  |  |  |  |  |  |  | MIC (S. aureus CMCC26003; S. aureus CMCC26003, MH broth, 37 °C, 18 h, OD600): 0.78(0.17) µg mL^−1; MIC (MRSA ATCC43300; MRSA ATCC43300, MH broth, 37 °C, 18 h, OD600): 4.69(1.05) µg mL^−1; MIC (VRSA 52; VRSA 52, MH broth, 37 °C, 18 h, OD600): 9.38(2.10) µg mL^−1; MIC (E. coli ATCC25922; E. coli ATCC25922, MH broth, 37 °C, 18 h, OD600): 4.69(1.05) µg mL^−1; MIC (E. faecalis ATCC29212; E. faecalis ATCC29212, MH broth, 37 °C, 18 h, OD600): 18.75(4.19) µg mL^−1; MIC (K. pneumoniae 9883; K. pneumoniae 9883, MH broth, 37 °C, 18 h, OD600): 37.5(8.37) µg mL^−1; MIC (VRSA 11; VRSA 11, MH broth, 37 °C, 18 h, OD600): 9.38(2.10) µg mL^−1; MIC (S. typhimurium ATCC14028; S. typhimurium ATCC14028, MH broth, 37 °C, 18 h, OD600): 75(16.75) µg mL^−1; MIC (S. aureus 15772; S. aureus 15772, MH broth, 37 °C, 18 h, OD600): 2.34(0.52) µg mL^−1; MIC (S. aureus ATCC29213; S. aureus ATCC29213, MH broth, 37 °C, 18 h, OD600): 4.69(1.05) µg mL^−1; MIC (P. aeruginosa ATCC27853; P. aeruginosa ATCC27853, MH broth, 37 °C, 18 h, OD600): >100(>22.33) µg mL^−1; MIC (A. baumannii ATCC19606; A. baumannii ATCC19606, MH broth, 37 °C, 18 h, OD600): 2.34(0.52) µg mL^−1; MIC (S. aureus 15192; S. aureus 15192, MH broth, 37 °C, 18 h, OD600): 2.34(0.52) µg mL^−1
